Results reported in ChEMBL document CHEMBL5729210, “Benzodiazepine derivatives as RSV inhibitors” (2022).
“And” between values parts separate entries of the source, which are not always exact repeats. Equal entries are not always repeated.

Test: RSV-A Assay: The description is Japanese.
`COCCOC(=O)c1nc2ccccc2n1CCOC` gave an EC50 greater than 800 nM. In the case of `N#Cc1ccc(N2CCOCC2)c(-c2nnc(N[C@H]3N=C(c4ccccc4)c4ccccc4NC3=O)o2)n1`, the EC50 is reported as less than 400 nM. With `O=C1Nc2ccccc2C(c2ccccc2)=N[C@@H]1Nc1nnc(-c2ncc(C3CC3)cc2N2CC3CCC(C2)O3)o1` the EC50 was less than 400 nM. In the case of `C#Cc1cnc(-c2nnc(N[C@H]3N=C(c4ccccc4)c4ccccc4NC3=O)o2)c(N2CCOCC2)c1`, the EC50 is reported as less than 400 nM. Compound `COCCOc1cc(C#N)ccc1-c1nnc(N[C@H]2N=C(c3ccccc3)c3ccccc3NC2=O)o1` has an EC50 of less than 400 nM. With `O=C1Nc2ccccc2C(c2cccc(F)c2)=NC1Nc1nnc(-c2ccc(F)cc2)o1` (centres undefined) the EC50 was “in the range around 600 nM”. `CN1CCN(c2cc(C(F)(F)F)cnc2-c2nnc(N[C@H]3N=C(c4ccccc4)c4ccccc4NC3=O)o2)CC1=O` gave an EC50 greater than 800 nM. Compound `O=C1Nc2c(F)cccc2C(c2ccccc2)=N[C@@H]1Nc1nnc(-c2ccccc2N2CCOCC2)o1` has an EC50 of less than 400 nM. With `CCOC(=O)c1ncc(N2CCCC2)cc1N1CCOCC1` the EC50 was less than 400 nM. For `Cc1cc(-c2nnc(N[C@H]3N=C(c4ccccc4)c4ccccc4NC3=O)o2)c(N2CCOCC2)s1`, the EC50 was less than 400 nM. Compound `O=C1Nc2ccccc2C(c2ccccc2)=NC1Nc1cnc(-c2ccc(F)cc2)cn1` (centres undefined) has an EC50 greater than 800 nM. For `O=C1Nc2ccccc2C(c2ccccc2)=N[C@@H]1Nc1nnc(-c2ccnn2-c2ccccc2)o1`, the EC50 was greater than 800 nM. Work on `O=C1Nc2ccccc2C(c2ccccc2)=NC1Nc1ncc(-c2ccccc2)cn1` (centres undefined) yielded an EC50 greater than 800 nM. Work on `Cc1noc(C)c1-c1cc(C#N)ccc1-c1nnc(N[C@H]2N=C(c3ccccc3)c3ccccc3NC2=O)o1` yielded an EC50 greater than 800 nM. For `O=C1Nc2c(F)cccc2C(c2ccccc2)=NC1Nc1nnc(-c2ccc(N3CCOCC3)cc2)o1` (centres undefined), the EC50 was “in the range around 600 nM”. `N#Cc1ccc(-c2nnc(N[C@H]3N=C(c4ccccc4)c4ccccc4NC3=O)o2)c(-c2ccoc2)c1` gave an EC50 greater than 800 nM. In the case of `CN(CC(C)(C)O)c1cc(C(F)(F)F)cnc1-c1nnc(N[C@H]2N=C(c3ccccc3)c3ccccc3NC2=O)o1`, the EC50 is reported as greater than 800 nM. With `O=C1Nc2ccccc2C(c2ccccc2)=N[C@@H]1Nc1nnc(-c2nc3ccccc3cc2N2CCOCC2)o1` the EC50 was less than 400 nM. Compound `N#Cc1cnc(-c2nnc(N[C@H]3N=C(c4ccccc4)c4cccc(F)c4NC3=O)o2)c(N2CCOCC2)c1` has an EC50 of less than 400 nM. `CS(=O)(=O)c1cnc(-c2nnc(N[C@H]3N=C(c4ccccc4)c4ccccc4NC3=O)o2)c(N2CCOCC2)c1` gave an EC50 greater than 800 nM. In the case of `CN(C)c1cc(C(F)(F)F)cnc1-c1nnc(N[C@H]2N=C(c3ccccc3)c3ccccc3NC2=O)o1`, the EC50 is reported as greater than 800 nM. With `COCCn1nccc1-c1nnc(N[C@H]2N=C(c3ccccc3)c3ccccc3NC2=O)o1` the EC50 was greater than 800 nM. `O=C1Nc2ccccc2C(c2ccccc2)=N[C@@H]1Nc1nnc(-c2ncsc2N2CCOCC2)o1` gave an EC50 of less than 400 nM. For `O=C1Nc2ccccc2C(c2ccccc2)=N[C@@H]1Nc1nnc(-c2nc(C(F)(F)F)sc2N2CCOCC2)o1`, the EC50 was less than 400 nM. With `O=C1Nc2ccccc2C(c2ccccc2)=N[C@@H]1Nc1nnc(-c2ncc(C3=CCCCC3)cc2N2CCOCC2)o1` the EC50 was “in the range around 600 nM”. In the case of `C[C@@H]1COCCN1c1cc(C#N)cnc1-c1nnc(N[C@H]2N=C(c3ccccc3)c3ccccc3NC2=O)o1`, the EC50 is reported as less than 400 nM. `COCCn1ccnc1-c1nnc(N[C@H]2N=C(c3ccccc3)c3ccccc3NC2=O)o1` gave an EC50 greater than 800 nM. In the case of `COc1ccc(-c2ccc(NC3N=C(c4ccccc4)c4ccccc4NC3=O)nn2)cc1` (centres undefined), the EC50 is reported as greater than 800 nM. Work on `Cc1nc(-c2nnc(N[C@H]3N=C(c4ccccc4)c4ccccc4NC3=O)o2)c(C2=CCOCC2)s1` yielded an EC50 of less than 400 nM. For `Cc1nc(-c2nnc(N[C@H]3N=C(c4ccccc4)c4ccccc4NC3=O)o2)c(Cl)s1`, the EC50 was greater than 800 nM. Compound `O=C1Nc2ccccc2C(c2ccccc2)=N[C@@H]1Nc1nnc(-c2ncsc2C2=CCOCC2)o1` has an EC50 of less than 400 nM. Work on `O=C1Nc2ccccc2C(c2ccccc2)=N[C@@H]1Nc1nnc(-c2ncc(F)cc2N2CC3CCC(C2)O3)o1` yielded an EC50 of less than 400 nM. For `O=C1Nc2ccccc2C(c2ccccc2)=N[C@@H]1Nc1nnc(-c2cnc(C(F)(F)F)nc2N2CC3CCC(C2)O3)o1`, the EC50 was greater than 800 nM. For `CCOC(=O)c1nc(C)sc1NCCOC`, the EC50 was less than 400 nM. With `N#Cc1cnc(-c2nnc(N[C@H]3N=C(c4ccccc4)c4ccccc4NC3=O)o2)c(N2C3CCC2COC3)c1` the EC50 was “in the range around 600 nM”. In the case of `O=C1Nc2ccccc2C(c2ccccc2)=NC1Nc1nnc(-c2ccc(F)cc2)[nH]1` (centres undefined), the EC50 is reported as greater than 800 nM. `O=C1Nc2ccccc2C(c2ccccc2)=N[C@@H]1Nc1nnc(-c2ncc3ccccc3c2N2CCOCC2)o1` showed an EC50 greater than 800 nM. In the case of `O=C1Nc2ccccc2C(c2ccccc2)=NC1Nc1ccc(-c2ccccc2N2CCOCC2)nn1` (centres undefined), the EC50 is reported as greater than 800 nM. For `N#Cc1c[nH]c2cc(-c3nnc(N[C@H]4N=C(c5ccccc5)c5ccccc5NC4=O)o3)ccc12`, the EC50 was greater than 800 nM. For `COC(=O)c1nc(Br)sc1N1CCOCC1`, the EC50 was less than 400 nM. Compound `O=C1Nc2ccccc2C(c2ccccc2)=N[C@@H]1Nc1nnc(-c2ncc(C(F)(F)F)cc2C2CC2)o1` has an EC50 greater than 800 nM. In the case of `N#Cc1cnc(-c2nnc(N[C@H]3N=C(c4ccccc4)c4ccccc4NC3=O)o2)c(N2CCOCC2)c1`, the EC50 is reported as less than 400 nM. `O=C1Nc2ccccc2C(c2ccccc2)=NC1Nc1nnc(C2CC2)[nH]1` (centres undefined) showed an EC50 greater than 800 nM. Work on `Cc1nc(-c2nnc(N[C@H]3N=C(c4ccccc4)c4ccccc4NC3=O)o2)cs1` yielded an EC50 greater than 800 nM. Work on `N#Cc1cc(N2CCOCC2)c(-c2nnc(N[C@H]3N=C(c4ccccc4)c4ccccc4NC3=O)o2)s1` yielded an EC50 of less than 400 nM. For `CSC(=N)NC1N=C(c2ccccc2)c2ccccc2NC1=O` (centres undefined), the EC50 was less than 400 nM. `COC(=O)c1occc1N1CCOCC1` showed an EC50 of less than 400 nM. In the case of `N#Cc1ccc(-c2nnc(NC3N=C(c4ccccc4)c4ccccc4NC3=O)[nH]2)cc1` (centres undefined), the EC50 is reported as “in the range around 600 nM”. With `N#Cc1cnc(-c2nnc(N[C@H]3N=C(c4ccccc4)c4ccccc4NC3=O)o2)c(N2CC3CCC(C2)O3)c1` the EC50 was less than 400 nM. In the case of `N#Cc1ccc(-c2cnc(NC3N=C(c4ccccc4)c4ccccc4NC3=O)o2)cc1` (centres undefined), the EC50 is reported as “in the range around 600 nM”. For `C[C@@H]1CN(c2cc(C#N)cnc2-c2nnc(N[C@H]3N=C(c4ccccc4)c4ccccc4NC3=O)o2)CCO1`, the EC50 was “in the range around 600 nM”. Work on `O=C1Nc2ccccc2C(c2ccccc2)=NC1Nc1nnc(-c2ccncc2)[nH]1` (centres undefined) yielded an EC50 greater than 800 nM. In the case of `O=C1Nc2ccccc2C(c2ccccc2)=N[C@@H]1Nc1nnc(-c2cnn(-c3ccccc3)c2)o1`, the EC50 is reported as “in the range around 600 nM”. Work on `COc1ccc(-c2nnc(N[C@H]3N=C(c4ccccc4)c4ccccc4NC3=O)o2)c(N2CCOCC2)n1` yielded an EC50 of less than 400 nM. In the case of `C[C@@H]1COCCN1c1cc(C(F)(F)F)cnc1-c1nnc(N[C@H]2N=C(c3ccccc3)c3ccccc3NC2=O)o1`, the EC50 is reported as less than 400 nM. For `O=C1Nc2ccccc2C(c2ccccc2)=N[C@@H]1Nc1nnc(-c2csc(N3CCOCC3)n2)o1`, the EC50 was “in the range around 600 nM”. `N#Cc1ccc(-c2ccc(NC3N=C(c4ccccc4)c4ccccc4NC3=O)nn2)cc1` (centres undefined) gave an EC50 of less than 400 nM. With `N#Cc1cccc(C2=NC(Nc3nnc(-c4ccc(F)cc4)o3)C(=O)Nc3ccccc32)c1` (centres undefined) the EC50 was greater than 800 nM. `C[C@H]1CN(c2cc(C#N)cnc2-c2nnc(N[C@H]3N=C(c4ccccc4)c4ccccc4NC3=O)o2)CCO1` gave an EC50 of less than 400 nM. With `O=C1Nc2ccccc2C(c2ccccc2)=NC1Nc1ccc(-c2ccncc2)nn1` (centres undefined) the EC50 was greater than 800 nM. For `N#CCCNc1cc(C(F)(F)F)cnc1-c1nnc(N[C@H]2N=C(c3ccccc3)c3ccccc3NC2=O)o1`, the EC50 was less than 400 nM. `O=C1Nc2ccccc2C(c2ccccc2)=NC1Nc1nnc(-c2ccccc2C2=CCOCC2)o1` (centres undefined) showed an EC50 greater than 800 nM. `O=C1Nc2c(F)cccc2C(c2ccccc2)=N[C@H]1Nc1nnc(-c2ncc(C(F)(F)F)cc2N2CCOCC2)o1` showed an EC50 of less than 400 nM. In the case of `O=C1Nc2c(F)cccc2C(c2ccccc2)=N[C@H]1Nc1nnc(-c2cccnc2N2CCOCC2)o1`, the EC50 is reported as > 800 nM and < 400 nM. `O=C1Nc2ccccc2C(c2ccccc2)=NC1Nc1nnc(-c2ccccc2C2CCOCC2)o1` (centres undefined) showed an EC50 greater than 800 nM. Compound `O=C1Nc2ccccc2C(c2ccccc2)=N[C@@H]1Nc1nnc(-c2ncc(C3CCCCC3)cc2N2CCOCC2)o1` has an EC50 of less than 400 nM. `O=C1Nc2c(Cl)cccc2C(c2ccccc2)=NC1Nc1nnc(-c2ccccc2N2CCOCC2)o1` (centres undefined) gave an EC50 greater than 800 nM. `COc1ccccc1-c1nc(-c2nnc(N[C@H]3N=C(c4ccccc4)c4ccccc4NC3=O)o2)c(N2CCOCC2)s1` showed an EC50 of less than 400 nM. For `CN1CCN(c2cc(C(F)(F)F)cnc2-c2nnc(N[C@H]3N=C(c4ccccc4)c4ccccc4NC3=O)o2)CC1`, the EC50 was “in the range around 600 nM”. For `Cc1nc(-c2nnc(N[C@H]3N=C(c4ccccc4)c4ccccc4NC3=O)o2)c(C2CCOCC2)s1`, the EC50 was less than 400 nM. `COCCNc1cc(C(F)(F)F)cnc1-c1nnc(N[C@H]2N=C(c3ccccc3)c3ccccc3NC2=O)o1` gave an EC50 of less than 400 nM. In the case of `Cc1nc(-c2nnc(N[C@H]3N=C(c4ccccc4)c4ccccc4NC3=O)o2)c(N2CCOCC2)o1`, the EC50 is reported as less than 400 nM. For `O=C1Nc2ccccc2C(c2ccccc2)=NC1Nc1ncc(-c2ccc(F)cc2)o1` (centres undefined), the EC50 was greater than 800 nM. In the case of `O=C1Nc2ccccc2C(c2ccccc2)=N[C@@H]1Nc1nnc(-c2ncc(C(F)(F)F)cc2N2CCC(O)CC2)o1`, the EC50 is reported as greater than 800 nM. With `CCOC(=O)c1ncc(C(F)(F)F)cc1N` the EC50 was greater than 800 nM. Compound `Cn1cc(-c2cc(C#N)cnc2-c2nnc(N[C@H]3N=C(c4ccccc4)c4ccccc4NC3=O)o2)ccc1=O` has an EC50 greater than 800 nM. `O=C1Nc2ccccc2C(c2ccccc2)=NC1Nc1ncc(-c2ccc(Br)cc2)o1` (centres undefined) showed an EC50 greater than 800 nM. For `O=C1Nc2ccccc2C(c2ccccc2)=N[C@@H]1Nc1nnc(-c2nc(C3CC3)ccc2N2CCOCC2)o1`, the EC50 was less than 400 nM. In the case of `O=C1Nc2ccccc2C(c2ccccc2)=NC1Nc1ccc(-c2ccc(F)cc2)nn1` (centres undefined), the EC50 is reported as greater than 800 nM. For `CNc1cc(C(F)(F)F)cnc1-c1nnc(N[C@H]2N=C(c3ccccc3)c3ccccc3NC2=O)o1`, the EC50 was greater than 800 nM. Work on `CC(C)(O)CNc1cc(C(F)(F)F)cnc1-c1nnc(N[C@H]2N=C(c3ccccc3)c3ccccc3NC2=O)o1` yielded an EC50 of less than 400 nM. In the case of `COC(=O)c1ccc(N2CCCC2)cc1N1CCOCC1`, the EC50 is reported as less than 400 nM. `O=C1Nc2ccccc2C(c2ccccc2)=N[C@@H]1Nc1nnc(-c2nc(-c3ccccc3)sc2N2CCOCC2)o1` gave an EC50 of less than 400 nM. Work on `O=C1Nc2ccccc2C(c2ccccc2)=N[C@@H]1Nc1nnc(-c2nnsc2N2CCOCC2)o1` yielded an EC50 of less than 400 nM. Compound `N#Cc1ccc(-c2nnc(N[C@H]3N=C(c4ccccc4)c4ccccc4NC3=O)o2)c(-c2ccsc2)c1` has an EC50 greater than 800 nM. `O=C1Nc2ccccc2C(c2ccccc2)=N[C@@H]1Nc1nnc(-c2nsnc2N2CCOCC2)o1` gave an EC50 of less than 400 nM. With `O=C1Nc2ccccc2C(c2ccccc2)=NC1Nc1nnc(-c2ccccc2N2CCOCC2)[nH]1` (centres undefined) the EC50 was greater than 800 nM. Compound `COC(=O)c1nc(-c2ccccn2)sc1Cl` has an EC50 of less than 400 nM. Work on `O=C1Nc2c(F)cccc2C(c2ccccc2)=N[C@H]1Nc1nnc(-c2ccccc2N2CCOCC2)o1` yielded an EC50 greater than 800 nM.
